Here are results for four compounds from US20260001875A1, “AMINOPYRIMIDINYL DERIVATIVES FOR THE TREATMENT OF PARKINSON'S DISEASE” (UNIVERSITY OF DUNDEE, priority 2022, published 2026).

Assay [1] has as its system Rab10 pThr73. The assay is described as follows: Rab10 Thr73 dephosphorylation (immunoblot) in LRRK2^G2019S MEFs. The format is cell-based, mouse. Particulars: Mus musculus; for inhibition at 1 µM: read-out: pRab10 inhibited in LRRK2^G2019S MEFs; for EC50: dose response, 4 h treatment, read-out: G2019S MEFs-pRab10-dephosphorylation EC50. (In general: A western blot detects proteins with antibodies after separation by electrophoresis.)

For assay [2], the system named is LRRK2^WT. The assay is described as follows: Western blot LRRK2 degradation in WT MEFs. The format is cell-based, mouse. Particulars: WT MEFs and LRRK2^G2019S MEFs. The method, then:
(§1) Western blot degradation assays for the LRRK2 protacs were performed with WT and PD-associated LRRK2 [G2019S] mouse embryonic fibroblasts (MEFs). The second-generation PROTACs were tested in parallel with the first generation PROTACs SD75, SD82, and SD100. The compounds were tested at 33 nM or […] concentrations for 4 hours or 24 hours, running two biological replicates per condition and achieving quantifications representative of both replicates. Analysis by quantitative immunoblotting was performed with readouts of the total LRRK2 (antibody recognizes epitope in C-terminus of protein), Rab10 pThr73 (physiological substrate) and LRRK2 pSer935 (biomarker phosphorylation site).
(§2) Primary MEFs were generated as described in a previous study (Wiggin et al., Mol. Cell Biol. 2002 April; 22(8):2871-81.). Briefly, the uterine horn was collected from adult female mice at day E12.5 and transferred to a 10 cm tissue culture dish containing cold PBS. Two forceps were used to tear the yolk sacs to isolate each embryo. Forceps were cleaned thoroughly with 70% ethanol between each embryo isolation. The embryos were culled, and a tissue piece was collected in a PCR tube for genotyping. The red tissue of the embryo, which grows to become the heart and liver, was removed. The remainder of the embryo was minced with a scalpel blade and incubated with 7.5 ml trypsin-EDTA solution for 10 minutes in a 37° C. tissue culture CO2 incubator. The dish was removed from the incubator and checked under a light microscope for single cells. 7.5 ml complete media was added to the trypsinised cells, and the cell suspension was transferred to a 15 ml Falcon tube, centrifuged at 1200 rpm for 5 minutes at room temperature. The trypsin was aspirated, the cell pellet was resuspended in 5 ml fresh complete media, and the cell suspension was plated in a 60 mm tissue culture dish and incubated in a 37° C., 5% CO2 tissue culture incubator. The MEFs at this stage were considered as passage 0 and were passaged and expanded for experimental use once the genotype was confirmed by allelic sequencing and immunoblotting. MEFs were cultured in Dulbecco's modified Eagle medium (DMEM) containing 10% (v/v) fetal bovine serum (FBS), 2 mM L-glutamine, 100 U/ml penicillin, and 100 μg/ml streptomycin supplemented with 1× non-essential amino acids and 1 mM sodium pyruvate.
(§3) Culturing and passaging of adherent cell lines were carried out using aseptic technique in CL1 or CL2 (for PBMC isolation) biological safety cabinets. All cells were incubated in a 37° C. incubator with 5% CO2. Cell lines were regularly tested for mycoplasma contamination. For western blot assay, the cells were seeded in 6-well plates. After treating with testing compounds at indicated concentrations and time period, the media was removed and the cells were washed with PBS and lysed in 100 μl ice-cold complete lysis buffer containing 50 mM Tris-HCl pH 7.4, 1 mM EGTA, 10 mM 2-glycerophosphate, 50 mM sodium fluoride, 5 mM sodium pyrophosphate, 270 mM sucrose, supplemented with 1 μg/ml microcystin-LR, 1 mM sodium orthovanadate, complete EDTA-free protease inhibitor cocktail (Roche) and 1% (v/v) Triton X-100. The cells were immediately placed on ice and were scraped and collected into 1.5 ml Eppendorf tubes. Cell lysates were incubated on ice for 10 minutes prior to centrifugation at 15,000 g at 4° C. for 15 minutes. The cell pellet was discarded, and supernatant was collected for analysis by quantitative immunoblotting. For long term storage, the supernatant was flash frozen and stored at −80° C. Protein concentrations of cell lysates were determined using the Bradford assay.
(§4) Cell lysates containing a quarter of a volume of 4× NuPAGE LDS sample buffer (NP0007) supplemented with 5% β-mercaptoethanol, were heated at 95° C. for 5 minutes. […]

For assay [3], the system named is Rab10 pThr73. Description: Rab10 Thr73 dephosphorylation (immunoblot) in LRRK2^G2019S MEFs. As to conditions: Mus musculus, read-out: pRab10 inhibited in LRRK2^G2019S MEFs. The format is cell-based.
In assay [4] the test system is Rab10 pThr73. Description: Rab10 Thr73 dephosphorylation (immunoblot) in WT MEFs. As to conditions: Mus musculus; for inhibition at 0.033 µM / inhibition at 1 µM: read-out: pRab10 inhibited in WT MEFs; for EC50: dose response, 4 h treatment, read-out: WT MEFs pRab10-dephosphrylation EC50. Type of assay: cell-based, mouse. The gist of the method: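 Wild-type mouse embryonic fibroblasts in 6-well plates were treated with LRRK2 PROTACs, with two biological replicates per condition. Cells were washed in PBS and lysed on ice in buffer containing phosphatase and protease inhibitors plus 1% Triton X-100, then clarified at 15,000 g. Rab10 Thr73 phosphorylation was measured by quantitative immunoblotting of 15 to 20 μg protein on 4-12% Bis-Tris gels.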

Assay [5] concerns the target T1, LRRK2^G2019S (Mus musculus, UniProt Q5S006, G2019S).
T1 construct: endogenous in cells; host or cells: LRRK2[G2019S] mouse embryonic fibroblasts (MEFs)
Description: Western blot LRRK2 degradation in LRRK2^G2019S MEFs. Type of assay: cell-based. As to conditions: for Dmax: read-out: Dmax on G2019S MEFs. Here is the method: The second-generation PROTACs were tested in parallel with the first generation PROTACs SD75, SD82, and SD100. The compounds were tested at 33 nM or […] concentrations for 4 hours or 24 hours, running two biological replicates per condition and achieving quantifications representative of both replicates. Analysis by quantitative immunoblotting was performed with readouts of the total LRRK2 (antibody recognizes epitope in C-terminus of protein), Rab10 pThr73 (physiological substrate) and LRRK2 pSer935 (biomarker phosphorylation site).
as §2
Culturing and passaging of adherent cell lines were carried out using aseptic technique in CL1 or CL2 (for PBMC isolation) biological safety cabinets. All cells were incubated in a 37° C. incubator with 5% CO2. Cell lines were regularly tested for mycoplasma contamination. For western blot assay, the cells were seeded in 6-well plates. […] The cells were immediately placed on ice and were scraped and collected into 1.5 ml Eppendorf tubes. Cell lysates were incubated on ice for 10 minutes prior to centrifugation at 15,000 g at 4° C. for 15 minutes. The cell pellet was discarded, and supernatant was collected for analysis by quantitative immunoblotting. For long term storage, the supernatant was flash frozen and stored at −80° C. Protein concentrations of cell lysates were determined using the Bradford assay.
Cell lysates containing a quarter of a volume of 4× NuPAGE LDS sample buffer (NP0007) supplemented with 5% β-mercaptoethanol, were heated at 95° C. for 5 minutes. 15 to 20 μg of samples were loaded onto pre-cast 4-12% Bis-Tris midi 20W or 26W gels (Thermofisher Scientific®, Cat #WG1402BOX or WG1403BOX) and resolved at 130 V for 2 hours with NuPAGE MOPS SDS running buffer (Thermofisher Scientific® Cat #NP0001-02). Proteins were electrophoretically transferred onto a 0.45 μm nitrocellulose membrane (GE Healthcare, Amersham Protran® Supported 0.45 mm NC) at 90 V for 90 min on ice in transfer buffer (48 mM Tris base and 39 mM glycine supplemented with 20% methanol). The transferred membrane was blocked with 5% (w/v) skim milk powder dissolved in tris-buffered saline with tween (TBS-T) (50 mM Tris base, 150 mM sodium chloride (NaCl), 0.1% (v/v) Tween-20) at room temperature for 1 hour.

The target of assay [6] is T2, LRRK2^WT (Mus musculus, UniProt Q5S006).
T2 construct: endogenous in cells; host or cells: primary wild-type mouse embryonic fibroblasts (MEFs)
T2 sequence (Q5S006 whole entry): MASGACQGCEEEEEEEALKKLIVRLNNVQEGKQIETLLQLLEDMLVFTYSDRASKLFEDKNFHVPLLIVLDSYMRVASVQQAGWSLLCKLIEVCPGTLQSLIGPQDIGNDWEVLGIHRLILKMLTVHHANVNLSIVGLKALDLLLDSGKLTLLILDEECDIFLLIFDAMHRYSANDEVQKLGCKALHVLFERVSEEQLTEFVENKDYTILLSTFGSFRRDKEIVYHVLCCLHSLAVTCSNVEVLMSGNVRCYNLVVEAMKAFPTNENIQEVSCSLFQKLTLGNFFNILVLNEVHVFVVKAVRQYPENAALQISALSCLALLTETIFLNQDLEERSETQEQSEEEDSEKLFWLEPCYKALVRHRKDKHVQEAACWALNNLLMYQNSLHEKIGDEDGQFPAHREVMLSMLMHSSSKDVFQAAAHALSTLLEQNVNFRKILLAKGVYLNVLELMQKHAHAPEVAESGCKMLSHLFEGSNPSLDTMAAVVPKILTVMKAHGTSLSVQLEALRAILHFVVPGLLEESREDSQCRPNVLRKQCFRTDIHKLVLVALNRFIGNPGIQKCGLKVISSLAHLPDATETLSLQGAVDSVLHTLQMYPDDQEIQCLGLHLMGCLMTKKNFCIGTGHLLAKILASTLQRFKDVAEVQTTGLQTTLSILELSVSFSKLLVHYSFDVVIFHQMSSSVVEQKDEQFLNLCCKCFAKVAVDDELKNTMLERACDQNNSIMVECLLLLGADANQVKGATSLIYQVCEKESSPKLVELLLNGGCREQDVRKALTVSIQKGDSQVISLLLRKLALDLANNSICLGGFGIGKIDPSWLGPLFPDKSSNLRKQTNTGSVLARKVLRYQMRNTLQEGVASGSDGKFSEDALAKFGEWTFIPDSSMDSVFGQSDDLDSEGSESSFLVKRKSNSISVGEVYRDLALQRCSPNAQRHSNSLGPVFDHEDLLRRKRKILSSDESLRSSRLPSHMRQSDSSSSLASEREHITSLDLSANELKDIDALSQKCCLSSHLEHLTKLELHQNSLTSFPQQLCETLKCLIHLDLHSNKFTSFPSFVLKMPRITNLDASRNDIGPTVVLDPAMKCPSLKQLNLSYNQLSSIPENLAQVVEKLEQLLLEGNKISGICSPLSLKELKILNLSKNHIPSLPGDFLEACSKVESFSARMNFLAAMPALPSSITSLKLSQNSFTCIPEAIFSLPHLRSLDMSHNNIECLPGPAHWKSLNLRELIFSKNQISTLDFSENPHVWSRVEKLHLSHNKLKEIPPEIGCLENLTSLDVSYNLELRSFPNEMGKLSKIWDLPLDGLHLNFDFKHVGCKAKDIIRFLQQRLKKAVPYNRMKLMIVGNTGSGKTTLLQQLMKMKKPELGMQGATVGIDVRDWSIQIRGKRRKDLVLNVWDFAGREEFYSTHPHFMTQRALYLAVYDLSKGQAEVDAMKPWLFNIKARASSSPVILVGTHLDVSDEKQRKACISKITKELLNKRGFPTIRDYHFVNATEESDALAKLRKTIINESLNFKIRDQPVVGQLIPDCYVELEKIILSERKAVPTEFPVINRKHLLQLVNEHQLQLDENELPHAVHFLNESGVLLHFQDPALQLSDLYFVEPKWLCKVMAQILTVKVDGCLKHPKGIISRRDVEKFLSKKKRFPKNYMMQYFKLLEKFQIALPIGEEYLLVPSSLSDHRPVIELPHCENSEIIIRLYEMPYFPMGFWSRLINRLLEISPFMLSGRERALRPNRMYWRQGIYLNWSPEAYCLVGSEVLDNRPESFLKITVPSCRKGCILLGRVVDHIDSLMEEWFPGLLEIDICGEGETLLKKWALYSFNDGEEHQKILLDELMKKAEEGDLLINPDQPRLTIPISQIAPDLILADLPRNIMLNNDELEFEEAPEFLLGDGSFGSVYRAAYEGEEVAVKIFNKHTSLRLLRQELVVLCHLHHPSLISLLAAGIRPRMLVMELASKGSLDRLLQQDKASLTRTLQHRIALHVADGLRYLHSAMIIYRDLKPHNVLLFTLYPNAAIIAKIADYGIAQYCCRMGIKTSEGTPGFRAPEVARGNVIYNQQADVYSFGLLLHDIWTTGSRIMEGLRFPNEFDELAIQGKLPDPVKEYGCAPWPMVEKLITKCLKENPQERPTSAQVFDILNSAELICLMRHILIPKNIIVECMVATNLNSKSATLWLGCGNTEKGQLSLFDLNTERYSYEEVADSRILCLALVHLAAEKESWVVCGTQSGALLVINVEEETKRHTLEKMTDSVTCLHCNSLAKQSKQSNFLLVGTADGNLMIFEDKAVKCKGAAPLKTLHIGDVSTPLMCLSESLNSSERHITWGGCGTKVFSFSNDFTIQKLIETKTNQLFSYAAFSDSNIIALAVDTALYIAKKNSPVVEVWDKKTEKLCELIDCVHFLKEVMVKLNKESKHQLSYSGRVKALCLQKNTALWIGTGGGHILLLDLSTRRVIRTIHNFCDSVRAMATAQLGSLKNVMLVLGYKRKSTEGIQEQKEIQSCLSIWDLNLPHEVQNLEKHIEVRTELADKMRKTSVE
Description: Western blot LRRK2 degradation in WT MEFs. The format is cell-based. Particulars: for Dmax: read-out: Dmax on WT MEFs. The method, then:
as §1, §2, §3, §4

Like-named read-outs stand apart in the source and are kept apart here.

T1 sequence (Q5S006 whole entry G2019S): as the sequence (Q5S006 whole entry) above, with G2019S counted along it

As to `CNc1nc(Nc2ccc(C(=O)N3CCN(CCCSC(C)(C)[C@H](NC(=O)C4(F)CC4)C(=O)N4C[C@H](O)C[C@H]4C(=O)NCc4ccc(-c5scnc5C)cc4)CC3)cc2OC)ncc1Cl` [SD82, (2S,4R)-1-((R)-3-((3-(4-(4-((5-chloro-4-(methylamino)pyrimidin-2-yl)amino)-3-methoxybenzoyl)piperazin-1-yl)propyl)thio)-2-(1-fluorocyclopropane-1-carboxamido)-3-methylbutanoyl)-4-hydroxy-N-(4-(4-methylthiazol-5-yl)benzyl)pyrrolidine-2-carboxamide], the inhibition at 1 µM lay within 30 to 95% in assay [1] (1 μM/4 h treatment), 18 to 90% in assay [4] (1 μM/4 h treatment) and 30 to 90% in assay [4] (1 μM/24 h treatment). In assay [2], the “LRRK2 degradation (in words)” value is on record as “moderate LRRK2 degradation”. Further, the inhibition at 0.033 µM was in the range of 0 to 60% in assay [3] (33 nM/4 h treatment), 0 to 70% in assay [3] (33 nM/24 h treatment) and 0 to 25% in assay [4] (33 nM/4 h treatment).

`CNc1nc(Nc2ccc(C(=O)N3CCN(C[C@H]4CC[C@@H](CSC(C)(C)[C@H](NC(=O)C5(F)CC5)C(=O)N5C[C@H](O)CC5C(=O)N[C@@H](C)c5ccc(-c6scnc6C)cc5)CC4)CC3)cc2OC)ncc1Cl` (stereo partly drawn) [XL02060, (2S,4R)-1-((R)-3-((((1s,4S)-4-((4-(4-((5-chloro-4-(methylamino)pyrimidin-2-yl)amino)-3-methoxybenzoyl)piperazin-1-yl)methyl)cyclohexyl)methyl)thio)-2-(1-fluorocyclopropane-1-carboxamido)-3-methylbutanoyl)-4-hydroxy-N—((S)-1-(4-(4-methylthiazol-5-yl)phenyl)ethyl)pyrrolidine-2-carboxamide]: the inhibition at 1 µM in assay [1] (1 μM/4 h treatment) lay in the range of 10 to 100%; in assay [1] (1 μM/24 h treatment) it was 80 to 100%; in assay [4] (1 μM/4 h treatment), 80 to 100%; in assay [4] (1 μM/24 h treatment), 80 to 100%. Moreover, the concentration for a half-maximal effect (EC50) was 27 nM in assay [1] and 32 nM in assay [4]. The Dmax came out at 78.5% in assay [5] (dose response, 4 h treatment) and 71% in assay [6] (dose response, 4 h treatment). Further, the inhibition at 0.033 µM in assay [3] (33 nM/4 h treatment) was 0 to 90%; in assay [3] (33 nM/24 h treatment) it was 30 to 90%; in assay [4] (33 nM/4 h treatment), 0 to 70%; in assay [4] (33 nM/24 h treatment), 0 to 80%.

Regarding `CNc1nc(Nc2ccc(C(=O)N3CCN(C(=O)[C@H]4CC[C@H](CSC(C)(C)[C@H](NC(=O)C5(F)CC5)C(=O)N5C[C@H](O)CC5C(=O)NCc5ccc(-c6scnc6C)cc5)CC4)CC3)cc2OC)ncc1Cl` (stereo partly drawn) [XL02068, (2S,4R)-1-((R)-3-((((1R,4R)-4-(4-(4-((5-chloro-4-(methylamino)pyrimidin-2-yl)amino)-3-methoxybenzoyl)piperazine-1-carbonyl)cyclohexyl)methyl)thio)-2-(1-fluorocyclopropane-1-carboxamido)-3-methylbutanoyl)-4-hydroxy-N-(4-(4-methylthiazol-5-yl)benzyl)pyrrolidine-2-carboxamide], the inhibition at 1 µM lay within 10 to 100% in assay [1] (1 μM/4 h treatment), 80 to 100% in assay [1] (1 μM/24 h treatment), 80 to 100% in assay [4] (1 μM/4 h treatment) and 80 to 100% in assay [4] (1 μM/24 h treatment). The figures for the EC50 in assay [1] and in assay [4] were 150 nM and 272 nM, respectively. The DC50 in assay [5] (dose response, 4 h treatment) was determined as 103 nM; in assay [6] (dose response, 4 h treatment), 93 nM. Besides, the Dmax in assay [5] stood at 87%; in assay [6] it was 89%. Moreover, the inhibition at 0.033 µM lay in the range of 0 to 90% in assay [3] (33 nM/4 h treatment), 30 to 90% in assay [3] (33 nM/24 h treatment), 0 to 70% in assay [4] (33 nM/4 h treatment) and 0 to 80% in assay [4] (33 nM/24 h treatment).

As for `CNc1nc(Nc2ccc(C(=O)N3CCN(C[C@H]4CC[C@H](CSC(C)(C)[C@H](NC(=O)C5(F)CC5)C(=O)N5C[C@H](O)[C@H](F)C5C(=O)NCc5ccc(-c6scnc6C)cc5)CC4)CC3)cc2OC)ncc1Cl` (stereo partly drawn) [XL02152, (2S,3R,4S)-1-((R)-3-((((1r,4R)-4-((4-(4-((5-chloro-4-(methylamino)pyrimidin-2-yl)amino)-3-methoxybenzoyl)piperazin-1-yl)methyl)cyclohexyl)methyl)thio)-2-(1-fluorocyclopropane-1-carboxamido)-3-methylbutanoyl)-3-fluoro-4-hydroxy-N-(4-(4-methylthiazol-5-yl)benzyl)pyrrolidine-2-carboxamide], the inhibition at 1 µM in assay [1] (1 μM/4 h treatment) fell in the range of 80 to 100%; in assay [4] (1 μM/4 h treatment), 75 to 90%. Moreover, the EC50 is 63 nM in assay [1] and 144 nM in assay [4]. Further, the DC50 stood at 44 nM in assay [5] (dose response, 4 h treatment) and 62 nM in assay [6] (dose response, 4 h treatment). The values for the Dmax in assay [5] and in assay [6] were 80% and 68%, respectively. The values for the inhibition at 0.033 µM in assay [3] (33 nM/4 h treatment) and in assay [4] (33 nM/4 h treatment) were 20 to 50% and 20 to 40%, respectively.

Broadly, the EC50 is the concentration needed to bring the measured effect to its halfway point. A word on the Dmax: it is the largest share of the target that was removed. As usually defined, the DC50 is the concentration giving 50% degradation.
